This note sets out measurements from a melting point compilation (Tetko et al.; mined from patent text by program, amines drawn as free bases though some values may be those of a salt).

`COc1cc(C2CCN(CC(O)CF)CC2)ccc1Nc1ncc2ccc(-c3ccccc3OC)n2n1` (stereo not given) came in with a melting point of 73 to 79 °C.
The result for `C(=NC1CN2CCC1CC2)c1ccc(-c2ccccc2)cc1` (stereo not given) reads 82 to 84 °C.
Regarding `COC1=C(C(=O)c2ccc(Cl)cc2Cl)C(=O)CCC1`, the melting point is 81 to 86 °C.
On to `CCCn1c(=O)oc2cc(F)c([N+](=O)[O-])cc21`, for which the melting point lay within 148 to 152 °C.
Then `O=C(Nc1cccnn1)N1CCN(c2cncc(-c3ccc(F)cc3F)c2)CC1`, with 172 to 173 °C; and `Nc1cc(OCc2ccccc2)ccc1C=C(Br)Br`, with 93 to 94 °C.
`CCOC(=O)c1ccc(C(C)(C)C(N)=O)cc1`: the melting point fell in the range of 104 to 109 °C.
As for `Fc1ccc2c(C3=CCN(CC4COc5ccc6[nH]c(C(F)(F)F)nc6c5O4)CC3)c[nH]c2c1` (stereo not given), the melting point fell in the range of 215 to 220 °C.
As for `COc1ccc(S(=O)(=O)N2c3ccccc3-c3ccccc3C2C)cc1` (stereo not given), the melting point is 167 to 169 °C.
The result for `O=C(O)C=CC1=CCCC([N+](=O)[O-])C1` (stereo not given) reads 158 to 160 °C; that for `CCN(CC)c1nc2ccccc2n2c(C(F)(F)F)nnc12`, 155 to 157 °C.
In the case of `Cc1c(Br)c2c(c(C)c1NC(=O)OC(C)(C)C)C(N(C)C)C(C)(C)O2` (stereo not given), the melting point fell in the range of 111 to 112 °C.
`O=c1nc(-c2ccccc2)c2cc([N+](=O)[O-])ccc2n1CC1CCCO1` (stereo not given) gave a melting point of 150 to 152 °C.
`CCOC(=O)c1cc(C)n(-c2cccc(C)c2)c1-c1ccccc1` came in with a melting point of 92.5 to 94 °C.
Then `CC(O)CC(=O)NCCN` (stereo not given), with 71 to 73 °C; and `Cc1ccc(C(=O)NC(N2CCN(c3cccc(F)c3)C2=S)C(Cl)(Cl)Cl)cc1` (stereo not given), with 184 to 186 °C; and `CON=Cc1nc(C)n2c1CN=C(c1ccccc1)c1cc(Cl)ccc1-2`, with 193 to 195 °C.
Then `O=C(O)CCc1cnoc1-c1cccc(Cl)c1`, with 110 to 111 °C; and `O=C(O)c1cc2cc(C3CCCCC3)ccc2nn1`, with 159 to 161 °C.
For `O=C(c1cccc(F)c1)N1CC2CC2(c2ccc(Cl)cc2)C1` (stereo not given), the melting point was 70 to 73 °C.
Then `COc1ccc(N2CCN(Cc3n[nH]c4c(F)c(F)ccc34)CC2)cc1`, with 195 to 197 °C.
The result for `CCOC(=O)c1sc(-c2cc3cccc(NS(=O)(=O)c4cccs4)c3[nH]2)nc1C` reads 226 to 228 °C.
`CCOC(=O)C(Oc1ccc(-c2ccc(Cl)cc2)cc1)(C(F)(F)F)C(F)(F)F` displayed a melting point of 44 to 45 °C.
The result for `CC(=O)NC1CC(=O)CC(=O)C1` reads 181 to 183 °C.
On to `CN(c1cccc2cc(C3=NCC(CCNc4nnc[nH]4)S3)[nH]c12)S(=O)(=O)c1cccs1` (stereo not given), for which the melting point amounted to 195 °C.
In the case of `CCc1ccccc1NC(=O)C(C#N)=C(C)N(C)C`, the melting point was in the range of 79 to 81.5 °C.
The result for `COC(=O)CC/C(C)=C/Cc1c(N=C=O)c2c(c(C)c1OC)COC2=O` reads 95 to 101 °C; that for `O=[N+]([O-])c1cc(C2=NOC(c3cc(C(F)(F)F)cc(C(F)(F)F)c3)(C(F)(F)F)C2)ccc1N1C=NNN1` (stereo not given), 147 to 149 °C.
For the compound `Cn1cc(C(=O)NCc2ccc(Cl)cc2)c(=O)c2cc(CCl)cc(I)c21`, the melting point fell in the range of 237 to 239 °C.
`COc1cc(C2=NN(c3ccccc3)C(=O)C2)cc([N+](=O)[O-])c1OC` returned a melting point of 190 to 192 °C.
Regarding `COc1ccc(C=CC(=O)c2c(O)cc(OC)cc2OC(C)C)cc1`, the melting point stood at 113 °C.
`Cc1nn(Cc2cccc(Cl)c2)cc1C(=O)CC(=O)C(=O)O` showed a melting point of 183 to 184 °C.
Then `CCC(C(=O)OC)[C@@H](C)O` (stereo not given in full), with 72.4 to 73.3 °C; and `CC(C)=CCOc1ccc(C(=O)C=Cc2c[nH]c3ccccc23)c(O)c1`, with 228 to 230 °C; and `CCS(=O)(=O)c1ccc(-c2nc(-c3nc4cc(OC)cc(OC)c4c(=O)[nH]3)ccc2OCCNC(C)C)cc1`, with 195 to 197 °C.

Broadly, the melting point is the temperature, or range, at which the solid turns liquid.
